According to patent US11420947B2, “(S)-n-hydroxy-2-(2-(4-methoxyphenyl)butanamido)thiazole-5-carboxamide and pharmaceutically acceptable salts thereof” (TRANSLATIONAL DRUG DEVELOPMENT, LLC, priority 2018, dated 2022):

Experiments:
Test in all cases: CellTiter-Glo cell viability assay
Assay type in all cases: cell-based
Nalm-6 = conditions: for IC50: Homo sapiens, Nalm-6, HEMATOPIETIC, ALL, 72 hours
Procedure: (§1) Cell viability in the presence of varying concentrations of the above listed compounds at different time points was used to assess cytotoxicity and the effect of the compounds on cell proliferation.
(§2) Cell viability was measured by the CellTiter-Glo® cell viability assay from Promega (Madison, Wis.). The CellTiter-Glo® Luminescent Cell Viability Assay is a homogeneous method to determine the number of viable cells in culture based on quantitation of the ATP present, which signals the presence of metabolically active cells. Following treatment, CellTiter-Glo® is added to treatment wells and incubated at 37° C. luminescence values were measured at using a Molecular Devices Spectramax microplate reader
(§3) Cells were grown to 70% confluency, trypsinized, counted, and seeded in 96 well flat-bottom plates at a final concentration of 2.5×10^3-5×10^3 cells/well (Day 0). Cells were allowed to incubate in growth media for 24 hours. Treatment with the test agents or standard agents began on Day 1 and continued for 72 hours. At the 72-hour timepoint, treatment containing media was removed. Viable cell numbers are quantified by the CellTiter-Glo® cell viability assay as described above. Results from these studies were used to calculate an IC50 value (concentration of drug that inhibits cell growth by 50 percent of control) for each compound.
(§4) For single agent and combination studies, data from each experiment was collected and expressed as % Cell Growth using the following calculation: % Cell Growth=(ftest/fvehicle)×100
(§5) Where test is the fluorescence of the tested sample, and fvehicle is the fluorescence of the vehicle in which the drug is dissolved. Dose response graphs and IC50 values were generated using Prism 6 software (GraphPad) using the following equation: Y=(Top-Bottom)/(1+10^((logIC^50^-X)-HillSlope))

SiHa = conditions: for IC50: Homo sapiens, SiHa, CERVICAL-SQUAMOUS CELL, 72 hours
Procedure: as §1, §2, §3, §4, §5

ASPC-1 = conditions: for IC50: Homo sapiens, ASPC1, ASPC-1, PANCREAS, Pancreatic, 72 hours
Procedure: as §1, §2, §3, §4, §5

HCC70 = conditions: for IC50: Homo sapiens, HCC70, BREAST, TNBC, 72 hours
Procedure: as §1, §2, §3, §4, §5

HCC1806 = conditions: for IC50: Homo sapiens, HCC1806, BREAST, acantholytic squamous cell carcinoma, 72 hours
Procedure: as §1, §2, §3, §4, §5

RXF-393 = conditions: for IC50: Homo sapiens, RXF-393, RENAL, RCC, 72 hours
Procedure: as §1, §2, §3, §4, §5

MOLP-8 = conditions: for IC50: Homo sapiens, MOLP-8, HEMATOPIETIC, MM, 72 hours
Procedure: as §1, §2, §3, §4, §5

J1M-1 = conditions: for IC50: J1M-1, HEMATOPIETIC, MM, 72 hours
Procedure: as §1, §2, §3, §4, §5

MiaPaCa = conditions: for IC50: Homo sapiens, MIA PaCa-2, MiaPaCa, PANCREAS, Pancreatic, 72 hours
Procedure: as §1, §2, §3, §4, §5

H522 = conditions: for IC50: Homo sapiens, NCI-H522, H522, LUNG, NSCLC, 72 hours
Procedure: as §1, §2, §3, §4, §5

H660 = conditions: for IC50: NCI-H660, H660, PROSTATE, LN Met, 72 hours
Procedure: as §1, §2, §3, §4, §5

RPMI-8226 = conditions: for IC50: Homo sapiens, RPMI-8226, HEMATOPIETIC, MM, 72 hours
Procedure: as §1, §2, §3, §4, §5

Hec-1A = conditions: for IC50: Homo sapiens, Hec-1A, ENDOMETRIAL, 72 hours
Procedure: as §1, §2, §3, §4, §5

G402 = conditions: for IC50: Homo sapiens, G-402, G402, RENAL, Renal leiomyoblastoma, 72 hours
Procedure: as §1, §2, §3, §4, §5

HepG2 = conditions: for IC50: Homo sapiens, HepG2, LIVER, HCC, 72 hours
Procedure: as §1, §2, §3, §4, §5

MDA-MB-468 = conditions: for IC50: Homo sapiens, MDA-MB-468, BREAST, TNBC, 72 hours
Procedure: as §1, §2, §3, §4, §5

L363 = conditions: for IC50: Homo sapiens, L-363, L363, HEMATOPIETIC, MM, 72 hours
Procedure: as §1, §2, §3, §4, §5

AN3CA = conditions: for IC50: Homo sapiens, AN3-CA, AN3CA, ENDOMETRIAL, 72 hours
Procedure: as §1, §2, §3, §4, §5

LK-2 = conditions: for IC50: Homo sapiens, LK-2, LUNG, Carcinoma, 72 hours
Procedure: as §1, §2, §3, §4, §5

Y79 = conditions: for IC50: Homo sapiens, Y79, RETINOBLASTOMA, Retina, 72 hours
Procedure: as §1, §2, §3, §4, §5

SK-Hep-1 = conditions: for IC50: Homo sapiens, SK-HEP1, SK-Hep-1, LIVER, HCC, 72 hours
Procedure: as §1, §2, §3, §4, §5

Capan-2 = conditions: for IC50: Homo sapiens, Capan-2, PANCREAS, Pancreatic, 72 hours
Procedure: as §1, §2, §3, §4, §5

MCF7 = conditions: for IC50: Homo sapiens, MCF7, BREAST, ER + BCC, 72 hours
Procedure: as §1, §2, §3, §4, §5

BxPC-3 = conditions: for IC50: Homo sapiens, BxPC-3, PANCREAS, Pancreatic, 72 hours
Procedure: as §1, §2, §3, §4, §5

SN12CCP = conditions: for IC50: SN12CCP, RENAL, RCC, 72 hours
Procedure: as §1, §2, §3, §4, §5

## CCC(C(=O)Nc1ncc(C(=O)NO)s1)c1ccc(OC)cc1 (racemic) [#1, N-hydroxy-2-(2-(4-methoxyphenyl)butanamido)thiazole-5-carboxamide]
Nalm-6
  IC50: 26 nM
SiHa
  IC50: 311 nM
ASPC-1
  IC50: 158 nM
HCC70
  IC50: 100 nM
HCC1806
  IC50: 179 nM
RXF-393
  IC50: 398 nM
MOLP-8
  IC50: 13 nM
J1M-1
  IC50: 47 nM
MiaPaCa
  IC50: 51 nM
H522
  IC50: 178 nM
H660
  IC50: 158 nM
RPMI-8226
  IC50: 31 nM
Hec-1A
  IC50: 56 nM
G402
  IC50: 102 nM
HepG2
  IC50: 215 nM
MDA-MB-468
  IC50: 68 nM
L363
  IC50: 44 nM
AN3CA
  IC50: 66 nM
LK-2
  IC50: 196 nM
Y79
  IC50: 363 nM
SK-Hep-1
  IC50: 374 nM
Capan-2
  IC50: 363 nM
MCF7
  IC50: 39 nM
BxPC-3
  IC50: 251 nM
SN12CCP
  IC50: 126 nM

## CC[C@H](C(=O)Nc1ncc(C(=O)NO)s1)c1ccc(OC)cc1 [#1a, (S)—N-hydroxy-2-(2-(4-methoxyphenyl)butanamido)thiazole-5-carboxamide]
Nalm-6
  IC50: 11 nM
Nalm-6; ratio of IC50, Nalm-6
  #1/#1a: 2.36
  #1b/#1a: 8.27
SiHa
  IC50: 307 nM
SiHa; ratio of IC50, SiHa
  #1/#1a: 1.01
  #1b/#1a: 8.91
ASPC-1
  IC50: 112 nM
ASPC-1; ratio of IC50, ASPC-1
  #1/#1a: 1.41
  #1b/#1a: 7.26
HCC70
  IC50: 52 nM
HCC70; ratio of IC50, HCC70
  #1/#1a: 1.92
  #1b/#1a: 6.56
HCC1806
  IC50: 71 nM
HCC1806; ratio of IC50, HCC1806
  #1/#1a: 2.52
  #1b/#1a: 6.55
RXF-393
  IC50: 113 nM
RXF-393; ratio of IC50, RXF-393
  #1/#1a: 3.52
  #1b/#1a: 7.82
MOLP-8
  IC50: 13 nM
MOLP-8; ratio of IC50, MOLP-8
  #1/#1a: 1
  #1b/#1a: 2.46
J1M-1
  IC50: 26 nM
J1M-1; ratio of IC50, J1M-1
  #1/#1a: 1.81
  #1b/#1a: 8.42
MiaPaCa
  IC50: 35 nM
MiaPaCa; ratio of IC50, MiaPaCa
  #1/#1a: 1.46
  #1b/#1a: 8.26
H522
  IC50: 115 nM
H522; ratio of IC50, H522
  #1/#1a: 1.55
  #1b/#1a: 8.5
H660
  IC50: 28 nM
H660; ratio of IC50, H660
  #1/#1a: 5.64
  #1b/#1a: 15.11
RPMI-8226
  IC50: 14 nM
RPMI-8226; ratio of IC50, RPMI-8226
  #1/#1a: 2.21
  #1b/#1a: 9.21
Hec-1A
  IC50: 37 nM
Hec-1A; ratio of IC50, Hec-1A
  #1/#1a: 1.51
  #1b/#1a: 8.35
G402
  IC50: 65 nM
G402; ratio of IC50, G402
  #1/#1a: 1.57
  #1b/#1a: 7.71
HepG2
  IC50: 76 nM
HepG2; ratio of IC50, HepG2
  #1/#1a: 2.83
  #1b/#1a: 8.3
MDA-MB-468
  IC50: 60 nM
MDA-MB-468; ratio of IC50, MDA-MB-468
  #1/#1a: 1.13
  #1b/#1a: 9.17
L363
  IC50: 21 nM
L363; ratio of IC50, L363
  #1/#1a: 2.1
  #1b/#1a: 8.1
AN3CA
  IC50: 47 nM
AN3CA; ratio of IC50, AN3CA
  #1/#1a: 1.4
  #1b/#1a: 4.87
LK-2
  IC50: 40 nM
LK-2; ratio of IC50, LK-2
  #1/#1a: 4.9
  #1b/#1a: 9.95
Y79
  IC50: 87 nM
Y79; ratio of IC50, Y79
  #1/#1a: 4.17
  #1b/#1a: 7.25
SK-Hep-1
  IC50: 149 nM
SK-Hep-1; ratio of IC50, SK-Hep-1
  #1/#1a: 2.51
  #1b/#1a: 6.71
Capan-2
  IC50: 136 nM
Capan-2; ratio of IC50, Capan-2
  #1/#1a: 2.67
  #1b/#1a: 7.13
MCF7
  IC50: 21 nM
MCF7; ratio of IC50, MCF7
  #1/#1a: 1.86
  #1b/#1a: 7.52
BxPC-3
  IC50: 174 nM
BxPC-3; ratio of IC50, BxPC-3
  #1/#1a: 1.44
  #1b/#1a: 6.3
SN12CCP
  IC50: 55 nM
SN12CCP; ratio of IC50, SN12CCP
  #1/#1a: 2.29
  #1b/#1a: 7.45

## CC[C@@H](C(=O)Nc1ncc(C(=O)NO)s1)c1ccc(OC)cc1 [#1b, (R)—N-hydroxy-2-(2-(4-methoxyphenyl)butanamido)thiazole-5-carboxamide]
Nalm-6
  IC50: 91 nM
SiHa
  IC50: 2740 nM
ASPC-1
  IC50: 813 nM
HCC70
  IC50: 341 nM
HCC1806
  IC50: 465 nM
RXF-393
  IC50: 884 nM
MOLP-8
  IC50: 32 nM
J1M-1
  IC50: 219 nM
MiaPaCa
  IC50: 289 nM
H522
  IC50: 977 nM
H660
  IC50: 423 nM
RPMI-8226
  IC50: 129 nM
Hec-1A
  IC50: 309 nM
G402
  IC50: 501 nM
HepG2
  IC50: 631 nM
MDA-MB-468
  IC50: 550 nM
L363
  IC50: 170 nM
AN3CA
  IC50: 229 nM
LK-2
  IC50: 398 nM
Y79
  IC50: 631 nM
SK-Hep-1
  IC50: 1000 nM
Capan-2
  IC50: 970 nM
MCF7
  IC50: 158 nM
BxPC-3
  IC50: 1100 nM
SN12CCP
  IC50: 410 nM
